Assay results: ChEMBL document CHEMBL1136372, “Antibacterial activity of quinolone-macrocycle conjugates” (2003)
Converted amounts (≈) assume the structure as drawn.

Columns and labels:
Escherichia coli = assay: Minimum inhibitory concentration against Escherichia coli ATCC 25922; assay type: functional
Staphylococcus aureus = assay: Minimum inhibitory concentration (MIC) against Staphylococcus aureus ATCC 13709; assay type: functional

| SMILES | MIC (Escherichia coli) | MIC (Staphylococcus aureus) |
| --- | --- | --- |
| NCC[C@@H]1NC(=O)CCNC(=O)c2cc(NC(=O)c3cnccn3)ccc2OC[C@@H](Cc2ccc(O)cc2)NC1=O | > 100 µM | > 100 µM |
| CCn1cc(C(=O)Nc2ccc3c(c2)C(=O)NCCC(=O)N[C@@H](CCN)C(=O)N[C@H](Cc2ccc(O)cc2)CO3)c(=O)c2ccc(C)nc21 | 50 µM (≈ 33.5 µg/mL) | > 100 µM |
| CCn1cc(C(=O)Nc2ccc3c(c2)C(=O)NCCC(=O)N[C@H](CCN)C(=O)N[C@@H](Cc2ccc(O)cc2)CO3)c(=O)c2ccc(C)nc21 | 50 µM (≈ 33.5 µg/mL) | > 100 µM |
| O=C(O)c1cn(C2CC2)c2cc(N3CCNCC3)c(F)cc2c1=O [CIPROFLOXACIN] | 0.08 µM (≈ 0.0265 µg/mL) | 0.6 µM (≈ 0.199 µg/mL) |
| CCn1cc(C(=O)Nc2ccc3c(c2)C(=O)NCCC(=O)N[C@H](CCN)C(=O)N[C@@H](Cc2ccccc2)CO3)c(=O)c2ccc(C)nc21 | 50 µM (≈ 32.7 µg/mL) | > 100 µM |
| CC1COc2c(N3CCN(C)CC3)c(F)cc3c2N1CC(C(=O)NCCCC(=O)Nc1ccc2c(c1)C(=O)NCCC(=O)N[C@@H](CCN)C(=O)N[C@H](Cc1ccc(O)cc1)CO2)C3=O (some centres not stated) | 3 µM (≈ 2.66 µg/mL) | 25 µM (≈ 22.1 µg/mL) |
| CC1COc2c(N3CCN(C)CC3)c(F)cc3c2N1CC(C(=O)NCCCCC(=O)Nc1ccc2c(c1)C(=O)NCCC(=O)N[C@@H](CCN)C(=O)N[C@H](Cc1ccc(O)cc1)CO2)C3=O (some centres not stated) | 3 µM (≈ 2.7 µg/mL) | 25 µM (≈ 22.5 µg/mL) |
| CC1COc2c(N3CCN(C)CC3)c(F)cc3c2N1CC(C(=O)Nc1ccc2c(c1)C(=O)NCCC(=O)N[C@@H](CCN)C(=O)N[C@H](Cc1ccc(O)cc1)CO2)C3=O (some centres not stated) | 3 µM (≈ 2.4 µg/mL) | 13 µM (≈ 10.4 µg/mL) |
| NCC[C@@H]1NC(=O)CCNC(=O)c2cc(NC(=O)Cn3cnc4c(O)nc(N)nc43)ccc2OC[C@@H](Cc2ccc(O)cc2)NC1=O | > 100 µM | > 100 µM |
| NCC[C@@H]1NC(=O)CCNC(=O)c2cc(NC(=O)Cn3cnc4c(N)ncnc43)ccc2OC[C@@H](Cc2ccc(O)cc2)NC1=O | > 100 µM | > 100 µM |
| CC1COc2c(N3CCN(C)CC3)c(F)cc3c2N1CC(C(=O)NCC(=O)Nc1ccc2c(c1)C(=O)NCCC(=O)N[C@@H](CCN)C(=O)N[C@H](Cc1ccc(O)cc1)CO2)C3=O (some centres not stated) | 3 µM (≈ 2.57 µg/mL) | 50 µM (≈ 42.9 µg/mL) |
| CC1COc2c(N3CCN(C)CC3)c(F)cc3c2N1CC(C(=O)NCCCCCC(=O)Nc1ccc2c(c1)C(=O)NCCC(=O)N[C@@H](CCN)C(=O)N[C@H](Cc1ccc(O)cc1)CO2)C3=O (some centres not stated) | 3 µM (≈ 2.74 µg/mL) | 25 µM (≈ 22.9 µg/mL) |
| CC1COc2c(N3CCN(C)CC3)c(F)cc3c2N1CC(C(=O)NCCC(=O)Nc1ccc2c(c1)C(=O)NCCC(=O)N[C@@H](CCN)C(=O)N[C@H](Cc1ccc(O)cc1)CO2)C3=O (some centres not stated) | 3 µM (≈ 2.62 µg/mL) | 13 µM (≈ 11.3 µg/mL) |
| CCn1cc(C(=O)Nc2ccc3c(c2)C(=O)NCCC(=O)N[C@@H](CCN)C(=O)N[C@H](Cc2ccccc2)CO3)c(=O)c2ccc(C)nc21 | 50 µM (≈ 32.7 µg/mL) | > 100 µM |
| CCN1CC(C(=O)Nc2ccc3c(c2)C(=O)NCCC(=O)N[C@@H](CCN)C(=O)N[C@H](Cc2ccc(O)cc2)CO3)C(=O)c2ccc(C)nc21 (some centres not stated) | 50 µM (≈ 33.6 µg/mL) | > 100 µM |
| CCn1cc(C(=O)O)c(=O)c2ccc(C)nc21 [NALIDIXIC ACID] | 3 µM (≈ 0.697 µg/mL) | 75 µM (≈ 17.4 µg/mL) |
| CCN1CC(CNc2ccc3c(c2)C(=O)NCCC(=O)N[C@@H](CCN)C(=O)N[C@H](Cc2ccc(O)cc2)CO3)C(=O)c2ccc(C)nc21 (some centres not stated) | > 100 µM | > 100 µM |
| CCn1cc(C(=O)Nc2ccc3c(c2)C(=O)NCCC(=O)N[C@H](CCN)C(=O)N[C@H](Cc2ccc(O)cc2)CO3)c(=O)c2ccc(C)nc21 | 50 µM (≈ 33.5 µg/mL) | > 100 µM |
| CCn1cc(C(=O)Nc2ccc3c(c2)C(=O)NCCC(=O)N[C@@H](CCN)C(=O)N[C@@H](Cc2ccc(O)cc2)CO3)c(=O)c2ccc(C)nc21 | 50 µM (≈ 33.5 µg/mL) | > 100 µM |
| NCC[C@@H]1NC(=O)CCNC(=O)c2cc(NC(=O)c3cnc4ccccc4c3)ccc2OC[C@@H](Cc2ccc(O)cc2)NC1=O | > 100 µM | > 100 µM |
| CN1CCN(c2cc3c(cc2F)C(=O)C(C(=O)Nc2ccc4c(c2)C(=O)NCCC(=O)N[C@@H](CCN)C(=O)N[C@H](Cc2ccc(O)cc2)CO4)CN3C2CC2)CC1 (some centres not stated) | 0.2 µM (≈ 0.157 µg/mL) | 1.6 µM (≈ 1.26 µg/mL) |
| CCn1cc(C(=O)Nc2ccc3c(c2)C(=O)NCCC(=O)N[C@H](CCN)C(=O)N[C@H](Cc2ccccc2)CO3)c(=O)c2ccc(C)nc21 | 50 µM (≈ 32.7 µg/mL) | > 100 µM |
| CC1COc2c(N3CCN(C)CC3)c(F)cc3c2N1CC(C(=O)N(C)CC(=O)Nc1ccc2c(c1)C(=O)NCCC(=O)N[C@@H](CCN)C(=O)N[C@H](Cc1ccc(O)cc1)CO2)C3=O (some centres not stated) | 6 µM (≈ 5.23 µg/mL) | 50 µM (≈ 43.6 µg/mL) |
| CC1COc2c(N3CCN(C)CC3)c(F)cc3c(=O)c(C(=O)O)cn1c23 (configuration not stated) [OFLOXACIN] | 0.78 µM (≈ 0.282 µg/mL) | 25 µM (≈ 9.03 µg/mL) |
| CCn1cc(C(=O)Nc2ccc3c(c2)C(=O)NCCC(=O)N[C@@H](CCN)C(=O)N[C@@H](Cc2ccccc2)CO3)c(=O)c2ccc(C)nc21 | 50 µM (≈ 32.7 µg/mL) | > 100 µM |
| NCC[C@@H]1NC(=O)CCNC(=O)c2cc(NC(=O)c3ccc4ccccc4c3)ccc2OC[C@@H](Cc2ccc(O)cc2)NC1=O | > 100 µM | > 100 µM |
